Tests used:
[1] = in vivo
From the text: • 1. acute toxicity test: including tests of administrating medicine by oral, Intravenous injection and maximum limit amount for administration; • 2. Ames test; • 3. micronucleus test of bone marrow cell of mouse; • 4. abnormal sexual test for the sperm of mouse; • 5. abnormal aberrance test for the chromosin of mouse's testis; • 6. chronic lethal test; • 7. subchronic toxicity (feed for 90 days) test; • 8. traditional aberrance-inducing test;

[2] = tested on: Proteus Mirabilis; experiment: Promoting wave test (bio-wave model); assay type: cell-based; details: final concentration of 0.5% on LB plate, 37° C.
From the text: I. Promoting Wave Test of the Compound of Formula (I) 1.

CC(=O)N[C@@H]1[C@@H](O)[C@H](O)[C@@H](CO)O[C@H]1O [compound of formula (I), N-acetyl-D-glucosamine]
acute test dosage relative to the injection dosage for human being [1]: 300 times | dosage at which acute toxicosis reaction had not appeared [1]: more than 2 g/kg | promoting wave function (concentric ring pattern compared with control) [2]: there were also many fine waves on each ring emerged
